The NIST ThermoML archive (doi:10.1016/j.fluid.2010.01.019)

Conditions: Liquid, Vibrating tube method

CCCCC(=O)OCC(COCC(COC(=O)CCCC)(COC(=O)CCCC)COC(=O)CCCC)(COC(=O)CCCC)COC(=O)CCCC
mass density [kg/m3]
Conditions | 100 kPa | 1000 kPa | 5000 kPa | 10000 kPa | 20000 kPa | 30000 kPa | 40000 kPa | 50000 kPa | 60000 kPa | 70000 kPa
283.15 K | 1045 | 1045.5 | 1047.7 | 1050.4 | 1055.8 | 1060.9 | 1065.8 | 1070.5 | 1075 | 1079.3
298.15 K | 1033.7 | 1034.2 | 1036.7 | 1039.7 | 1045.4 | 1050.7 | 1055.9 | 1060.8 | 1065.5 | 1070
323.15 K | 1014.6 | 1015.2 | 1018 | 1021.3 | 1027.6 | 1033.5 | 1039 | 1044.4 | 1049.5 | 1054.3
333.15 K | 1007 | 1007.7 | 1010.6 | 1014 | 1020.6 | 1026.7 | 1032.4 | 1037.9 | 1043.2 | 1048.2
348.15 K | 995.5 | 996.3 | 999.4 | 1003.1 | 1010 | 1016.4 | 1022.5 | 1028.3 | 1033.8 | 1039.1
373.15 K | 975.7 | 977.3 | 980.8 | 984.9 | 992.5 | 999.6 | 1006.2 | 1012.5 | 1018.4 | 1024
398.15 K | 957 | 957.8 | 961.4 | 965.9 | 974.4 | 982.1 | 989.3 | 996.1 | 1002.4 | 1008.4

CCCCCCC(=O)OCC(COCC(COC(=O)CCCCCC)(COC(=O)CCCCCC)COC(=O)CCCCCC)(COC(=O)CCCCCC)COC(=O)CCCCCC [dipentaerythritol hexaheptanoate]
mass density [kg/m3]
Conditions | 100 kPa | 1000 kPa | 5000 kPa | 10000 kPa | 20000 kPa | 30000 kPa | 40000 kPa | 50000 kPa | 60000 kPa | 70000 kPa
283.15 K | 1000.3 | 1000.9 | 1003.2 | 1005.9 | 1011.2 | 1016.1 | 1020.8 | 1025.4 | 1029.9 | 1034.2
298.15 K | 989.7 | 990.3 | 992.8 | 995.7 | 1001.3 | 1006.4 | 1011.3 | 1016.1 | 1020.7 | 1025.2
323.15 K | 971.7 | 972.2 | 974.9 | 978.2 | 984.4 | 990.1 | 995.5 | 1000.6 | 1005.6 | 1010.3
333.15 K | 964.4 | 965.1 | 967.9 | 971.3 | 977.8 | 983.7 | 989.3 | 994.6 | 999.7 | 1004.6
348.15 K | 953.7 | 954.4 | 957.4 | 961 | 967.8 | 974.1 | 980 | 985.6 | 990.9 | 996
373.15 K | 935 | 936.6 | 939.9 | 943.9 | 951.4 | 958.3 | 964.7 | 970.8 | 976.5 | 981.9
398.15 K | 917.4 | 918.2 | 921.7 | 926.1 | 934.4 | 941.9 | 948.9 | 955.5 | 961.6 | 967.3
